Measured values reported in US9371290B2, “Pyridazinone compounds” (BIOTIE THERAPIES CORPORATION, priority 2011, dated 2016).

How the values were obtained:
[1] = system: Total MAO; assay: Total rat MAO activity (rat liver mitochondrial preparation, tyramine substrate); assay type: biochemical
Experimental: Rat MAO was prepared from rat liver by rinsing the 1 g liver sample several times in 14 ml KCl-EDTA-solution to remove all blood. Then 1 g liver sample was homogenized in 4 ml ice-cold potassium phosphate buffer (0.1 M, pH 7.4) with an Ultra-Turrax homogenizer (setting 11 000 rpm, 4×10 s). After centrifugation at 500 g for 10 min at 4° C. the supernatant was carefully withdrawn and was centrifuged at 12 300 g for 15 min at 4° C. The supernatant was discharged and sedimented mitochondria were resuspended in 4 ml fresh phosphate buffer and centrifuged as previously. The mitochondria were suspended in 4 ml phosphate buffer and homogenized with an Ultra-Turrax homogenizer (setting 11 000 rpm, 2×10 s). Mitochondrial preparate was aliquoted and stored at −70° C. Total MAO activity was measured in a similar way as for VAP-1 SSAO except that SSAO enzyme was replaced by MAO enzyme. To each well was added a predetermined amount of inhibitor if required. The amount of inhibitor varied in each assay but was generally at a final concentration of between 10 nM and 800 μM. Controls lacked inhibitor. The inhibitor was in a total volume of 20 μl in water. The following reagents were then added. 0.2 M potassium phosphate buffer pH 7.6 for a total reaction volume of 200 μl, 50 μl of freshly made chromogenic solution (as above) and 50 μl of MAO preparation (or needed amount of MAO). The plates were incubated for 30 min at 37° C. and the background absorbance measured at 490 nm using a Wallac Victor II multilabel counter. To initiate the enzyme reaction 20 μl of 5 mM tyramine (final concentration 0.5 mM) was added and the plate incubated for 1 h at 37° C. The increase in absorbance, reflecting MAO activity, was measured at 490 nm. Inhibition was presented as percent inhibition compared to control after correcting for background absorbance and IC50 values calculated using GraphPad Prism. Clorgyline and pargyline (inhibitors of MAO-A and -B respectively) at 0.5 μM were added to some wells as positive controls for MAO inhibition.

[2] = target: T1, Recombinant human VAP-1 SSAO (Homo sapiens, UniProt Q16853); assay: In vitro inhibition of VAP-1 SSAO activity (coupled colorimetric method, benzylamine substrate); assay type: biochemical; details: CHO cell lysate, 1 mM benzylamine, read-out: VAP-1 SSAO Inhibitory activity IC50
T1 construct: made in house; host or cells: Chinese Hamster Ovary (CHO) cells; clarified NP40 cell lysate used directly
T1 sequence (Q16853 1-763): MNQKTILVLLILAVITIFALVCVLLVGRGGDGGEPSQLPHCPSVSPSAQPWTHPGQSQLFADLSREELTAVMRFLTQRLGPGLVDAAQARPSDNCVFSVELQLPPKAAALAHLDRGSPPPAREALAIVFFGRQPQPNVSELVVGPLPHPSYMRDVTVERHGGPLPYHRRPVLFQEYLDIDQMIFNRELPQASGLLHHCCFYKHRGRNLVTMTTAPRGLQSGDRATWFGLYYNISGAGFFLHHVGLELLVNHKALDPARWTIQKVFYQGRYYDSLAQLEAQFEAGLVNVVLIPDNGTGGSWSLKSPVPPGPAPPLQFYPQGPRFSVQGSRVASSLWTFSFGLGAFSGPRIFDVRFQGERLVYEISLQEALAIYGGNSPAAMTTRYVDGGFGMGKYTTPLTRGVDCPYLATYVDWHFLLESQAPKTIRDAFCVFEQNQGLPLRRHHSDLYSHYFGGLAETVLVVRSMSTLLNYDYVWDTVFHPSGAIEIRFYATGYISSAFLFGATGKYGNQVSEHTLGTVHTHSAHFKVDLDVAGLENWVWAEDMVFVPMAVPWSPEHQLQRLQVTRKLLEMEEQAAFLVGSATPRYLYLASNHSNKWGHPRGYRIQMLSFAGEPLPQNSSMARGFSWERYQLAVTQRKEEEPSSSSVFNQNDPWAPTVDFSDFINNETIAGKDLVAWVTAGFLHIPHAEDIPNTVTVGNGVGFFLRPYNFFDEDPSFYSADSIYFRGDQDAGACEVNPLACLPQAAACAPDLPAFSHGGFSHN
Experimental: VAP-1 SSAO activity was measured using the coupled colorimetric method essentially as described for monoamine oxidase and related enzymes (Holt, A., et al., Anal. Biochem. 244:384-392 (1997)). Recombinant human VAP-1 SSAO expressed in Chinese Hamster Ovary (CHO) cells was used as a source of VAP-1 SSAO for activity measurements. Native CHO cells have negligible SSAO activity. These cells and their culture have previously been described (Smith, D. J., et al., J. Exp. Med. 188:17-27 (1998)). A cell lysate was prepared by suspending approximately 3.6×10^8 cells in 25 ml lysis buffer (150 mM NaCl, 10 mM Tris-Base pH 7.2, 1.5 mM MgCl2, 1% NP40) and incubating at 4° C. overnight on a rotating table. The lysate was clarified by centrifugation at 18 000 g for 5 min at room temperature and the supernatant used directly in the assay. The VAP-1 SSAO assay was performed in 96 well microtitre plates as follows. To each well was added a predetermined amount of inhibitor if required. The amount of inhibitor varied in each assay but was generally at a final concentration of between 1 nM and 50 μM. Controls lacked inhibitor. The inhibitor was in a total volume of 20 μl in water. The following reagents were then added. 0.2 M potassium phosphate buffer pH 7.6 to a total reaction volume of 200 μl, 50 μl of freshly made chromogenic solution containing 1 mM vanillic acid, 500 μM 4-aminoantipyrine and 8 U/ml horseradish peroxidase and an amount of CHO cell lysate containing VAP-1 SSAO that caused a change of 0.6 A490 per h. This was within the linear response range of the assay. The plates were incubated for 30 min at 37° C. and the background absorbance measured at 490 nm using a Wallac Victor II multilabel counter. To initiate the enzyme reaction 20 μl 10 mM benzylamine (final concentration=1 mM) was added and the plate incubated for 1 h at 37° C. The increase in absorbance, reflecting VAP-1 SSAO activity, was measured at 490 nm. Inhibition was presented as percent inhibition compared to control after correcting for background absorbance and IC50 values calculated using GraphPad Prism.

Row | Structure (SMILES) | melting point | IC50 [2] | Total MAO Inhibitory activity (%) ([1]; at 100 μM) | Total MAO Inhibitory activity (%) ([1]; at 250 μM) | Total MAO Inhibitory activity (%) ([1]; at 50 μM)
1 | CNc1cc(=O)n(-c2ccccc2)nc1-c1nc[nH]n1 [Compound 28] | 245 to 247 °C | 3600 nM | 10% |  | 
2 | COc1cc(Nc2cc(=O)n(-c3ccc(Cl)cc3)nc2-c2nc[nH]n2)cc(OC)c1OC [Compound 61] | 238 to 241 °C | 300 nM |  | 17% | 
3 | O=c1cc(Nc2ccc3c(c2)OCO3)c(-c2nc[nH]n2)nn1-c1ccc(Cl)cc1 [Compound 59, 2-(4-chlorophenyl)-5-[(3,4-methylenedioxyphenyl)amino]-6-(1H-1,2,4-triazol-3-yl)-3(2H)-pyridazinone] | 270 to 273 °C | 80 nM |  | 14% | 
4 | COc1cccc(-n2nc(-c3nc[nH]n3)c(Oc3ccccc3)cc2=O)c1 [Compound 27] | 253 to 254 °C | 2000 nM | 3% |  | 
5 | O=c1cc(Nc2ccc(N3CCCCC3)cc2)c(-c2nc[nH]n2)nn1-c1ccc(Cl)cc1 [Compound 62] | 240 to 242 °C | 280 nM |  | 21% | 
6 | CN1CCC(Nc2cc(=O)n(-c3ccc(Cl)cc3)nc2-c2nc[nH]n2)CC1 [Compound 68] | 227 to 230 °C | 180 nM |  |  | 
7 | O=c1cc(Nc2ccc(N3CCOCC3)cc2)c(-c2nc[nH]n2)nn1-c1ccc(Cl)cc1 [Compound 74] | 248 to 250 °C | 100 nM |  |  | 0%
8 | CN(C)CCNc1cc(=O)n(-c2ccccc2)nc1-c1nc[nH]n1 [Compound 13] | 211 to 214 °C | 15000 nM |  |  | 
9 | O=c1cc(NC2CCCCC2)c(-c2nc[nH]n2)nn1-c1ccccc1 [Compound 43, 5-cyclohexylamino-2-phenyl-6-(1H-1,2,4-triazol-3-yl)-3(2H)-pyridazinone] |  | 78 nM | 5% |  | 
10 | COc1ccc(Oc2cc(=O)n(-c3ccccc3)nc2-c2nc[nH]n2)cc1 [Compound 14] | 253 to 257 °C | 370 nM | 0% |  | 
11 | O=c1cc(NCc2ccccc2)c(-c2nc[nH]n2)nn1-c1ccccc1 [Compound 42, 5-benzylamino-2-phenyl-6-(1H-1,2,4-triazol-3-yl)-3(2H)-pyridazinone] | 192 to 193 °C | 720 nM | 2% |  | 
12 | O=c1cc(Nc2ccc(N3CCN(Cc4ccccc4)CC3)cc2)c(-c2nc[nH]n2)nn1-c1ccc(Cl)cc1 [Compound 77] | 248 to 251 °C | 350 nM |  |  | 24%
13 | C=CCOc1cc(=O)n(-c2ccc(Cl)cc2)nc1-c1nc[nH]n1 [Compound 73] | 172 to 175 °C | 2200 nM |  |  | 0%

Second part, led by results:

Row | melting point | IC50 [2] | Structure (SMILES) | Total MAO Inhibitory activity (%) ([1]; at 100 μM) | Total MAO Inhibitory activity (%) ([1]; at 250 μM) | Total MAO Inhibitory activity (%) ([1]; at 50 μM)
14 | 251 to 258 °C | 2000 nM | O=c1cc(NCCN2CCOCC2)c(-c2nc[nH]n2)nn1-c1ccccc1 [Compound 39] |  |  | 
15 | 203 to 205 °C | 270 nM | CC(C)Nc1cc(=O)n(-c2ccccc2)nc1-c1nc[nH]n1 [Compound 29, 5-isopropylamino-2-phenyl-6-(1H-1,2,4-triazol-3-yl)-3(2H)-pyridazinone] | 9% |  | 
16 | 255 to 257 °C | 170 nM | O=c1cc(NCC2CC2)c(-c2nc[nH]n2)nn1-c1ccc(Cl)cc1 [Compound 71] |  |  | 16%
17 | 285 to 290 °C | 800 nM | NCCCNc1cc(=O)n(-c2ccc(Cl)cc2)nc1-c1nc[nH]n1 [Compound 78] |  |  | 
18 | 176 to 177 °C | 73 nM | C#CCCNc1cc(=O)n(-c2ccc(Cl)cc2)nc1-c1nc[nH]n1 [Compound 83] |  |  | 0%
19 | 146 to 148 °C | ~60000 nM | O=c1cc(Oc2ccccc2)c(-c2ccc(F)cc2)nn1-c1ccccc1 [Compound 22] | 0% |  | 
20 | 276 to 279 °C | 63 nM | CN(C)c1ccc(Nc2cc(=O)n(-c3ccc(Cl)cc3)nc2-c2nc[nH]n2)cc1 [Compound 65] |  | 8% | 
21 | 245 to 250 °C | 640 nM | O=c1cc(Sc2ccccc2)c(-c2nc[nH]n2)nn1-c1ccccc1 [Compound 16, 2-phenyl-5-phenylsulfanyl-6-(1H-1,2,4-triazol-3-yl)-3(2H)-pyridazinone] | 24% |  | 
22 | 172 to 174 °C | 3500 nM | O=c1cc(Nc2cccnc2)c(-c2nc[nH]n2)nn1-c1ccccc1 [Compound 52] | 9% |  | 
23 | 218 to 221 °C | 31 nM | CN1CCN(c2ccc(Nc3cc(=O)n(-c4ccc(Cl)cc4)cc3-c3nc[nH]n3)cc2)CC1 [Compound 81] |  |  | 
24 | 212 to 215 °C | 140 nM | C=CCNc1cc(=O)n(-c2ccc(Cl)cc2)nc1-c1nc[nH]n1 [Compound 70] |  |  | 18%
25 | 275 to 276 °C | 1600 nM | O=c1cc(Oc2ccccc2)c(-c2nc[nH]n2)cn1-c1ccccc1 [Compound 34, 4-phenoxy-5-(1H-1,2,4-triazol-3-yl)-1-phenylpyridin-2(1H)-one] | 24% |  | 
26 | 227 to 229 °C | 70 nM | CN1CCN(c2ccc(Nc3cc(=O)n(-c4ccc(Cl)cc4)nc3-c3nc[nH]n3)cc2)CC1 [Compound 63] |  |  | 
27 | 252 to 254 °C | 220 nM | C#CCNc1cc(=O)n(-c2ccc(Cl)cc2)nc1-c1nc[nH]n1 [Compound 75] |  |  | 0%
28 | 262 to 264 °C | 340 nM | O=c1cc(Oc2ccccc2)c(-c2nc[nH]n2)nn1-c1cccc(F)c1 [Compound 46] | 9% |  | 
